This is an account of results in patent US9556180B2, “Pyrazolo[3,4-d]pyrimidinone compounds as inhibitors of the P53/MDM2 interaction” (Novartis AG, priority 2013, dated 2017).

Data set [1] addresses T1, p53-MDM4 interaction (human MDM4 protein, amino acids 2-185) (Homo sapiens, UniProt O15151).
T1 construct: human MDM4 protein (amino acids 2-185); made in house
T1 sequence (O15151 2-185): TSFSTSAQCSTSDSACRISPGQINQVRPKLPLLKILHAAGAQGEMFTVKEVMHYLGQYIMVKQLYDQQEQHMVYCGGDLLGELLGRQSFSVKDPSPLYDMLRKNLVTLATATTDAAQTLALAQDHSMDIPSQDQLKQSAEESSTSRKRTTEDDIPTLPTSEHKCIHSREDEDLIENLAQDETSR
Nature of the data set: p53-MDM4 Assay 1: TR-FRET inhibition of p53-MDM4 interaction. It is filed as binding. As to conditions: 2.5 nM MDM4-biotinylated, 10 nM Cy5-p53 peptide. The protocol: (§1) Time Resolved Fluorescence Energy Transfer (TR-FRET) Assay
(§2) The inhibition of p53-MDM2 and p53-MDM4 interactions is measured by time resolved fluorescence energy transfer (TR-FRET). Fluorescence energy transfer (or Foerster resonance energy transfer) describes an energy transfer between donor and acceptor fluorescent molecules. For this assay, human MDM2 protein (amino acids 2-188) and human MDM4 protein (amino acids 2-185), tagged with a C-terminal biotin moiety, are used in combination with a Europium labeled streptavidin (Perkin Elmer, Inc., Waltham, Mass., USA) serving as the donor fluorophore. The p53 derived, Cy5 labeled peptide Cy5-TFSDLWKLL (p53 aa18-26) is the energy acceptor. Upon excitation of the donor molecule at 340 nm, binding interaction between MDM2 or MDM4 and the p53 peptide induces energy transfer and enhanced response at the acceptor emission wavelength at 665 nm. Disruption of the formation of the p53-MDM2 or p53-MDM4 complex due to an inhibitor molecule binding to the p53 binding site of MDM2 or MDM4 results in increased donor emission at 620 nm. The ratiometric FRET assay readout is calculated from the raw data of the two distinct fluorescence signals measured in time resolved mode (fluorescence 665 nm/fluorescence 620 nm×1000).
(§3) After addition of 1.25 nM MDM2-biotinylated or 2.5 nM MDM4-biotinylated (internal preparations, both MDM2 and MDM4 are biotinylated at the C-terminal of the peptide construct), and 0.625 nM Europium labeled streptavidin (Perkin Elmer), the solution is pre-incubated for 15 minutes at room temperature, then 10 nM Cy5-p53 peptide (internal preparation, the Cy5 dye is directly bound to the N-terminal part of p53 peptide construct) is added before an incubation at room temperature for 15 minutes prior to reading the plate. For measurement of samples, a Victor II microplate reader (Perkin Elmer) is used with the following settings: Excitation 340 nm, Emission Donor 620 nm and Emission Acceptor 665 nm. IC50 values are calculated by curve fitting using XLfit. If not specified, reagents are purchased from Sigma-Aldrich Chemie GmBH, Buchs, Switzerland.
(§4) This assay was used to evaluate compounds displaying inhibition of p53-MDM2 interaction and p53-MDM4 interaction at IC50s of 0.005 to 50 μM (p53-MDM2 Assay 1 and p53-MDM4 Assay 1, respectively). For selected compounds displaying IC50s between […] on MDM2, a slightly modified assay is used with the following adaptations: 0.1 nM MDM2, 0.1 nM Europium labeled streptavidin and Tecan genios Pro is used as a microplate reader for the fluorescence measurements (p53-MDM2 Assay 2).
On the technique in general: Time-resolved FRET reads energy transfer from a long-lived donor to a nearby acceptor.

Data set [2] deals with T2, p53-MDM2 interaction (human MDM2 protein, amino acids 2-188) (Homo sapiens, UniProt Q00987).
T2 construct: human MDM2 protein (amino acids 2-188); made in house
T2 sequence (Q00987 2-188): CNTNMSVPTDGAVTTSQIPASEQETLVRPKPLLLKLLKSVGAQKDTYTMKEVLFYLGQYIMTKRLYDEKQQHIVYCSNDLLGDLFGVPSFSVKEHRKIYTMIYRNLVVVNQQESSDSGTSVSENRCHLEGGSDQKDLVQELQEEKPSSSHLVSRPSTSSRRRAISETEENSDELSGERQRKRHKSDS
Nature of the data set: p53-MDM2 Assay 1: TR-FRET inhibition of p53-MDM2 interaction. It is filed as binding. The following applies: 1.25 nM MDM2-biotinylated, 10 nM Cy5-p53 peptide. The protocol:
as §1, §2, §3, §4

For data set [3], the target named is T2, p53-MDM2 interaction (human MDM2 protein, amino acids 2-188). In words: p53-MDM2 Assay 2: slightly modified TR-FRET assay. Type of data set: binding. The following applies: 0.1 nM MDM2, 0.1 nM Europium labeled streptavidin, Tecan genios Pro reader. The protocol: as §1, §2, §3, §4

The compound `Cc1cc(Cl)ccc1C1c2c(nn(Cc3ccccn3)c2C(C)C)NC(=O)N1c1cccc(Cl)c1F` (centres unmarked) [Example 8, 5-(3-Chloro-2-fluoro-phenyl)-4-(4-chloro-2-methyl-phenyl)-3-isopropyl-2-pyridin-2-ylmethyl-2,4,5,7-tetrahydro-pyrazolo[3,4-d]pyrimidin-6-one] had a melting point of 150 to 153 °C. The IC50 in data set [1] turned out to be 8200 nM. Moreover, the concentration for half-maximal inhibition (IC50) in data set [2] came to 3.2 nM.

`COc1ccccc1-n1nc2c(c1C(C)C)C(c1ccc(Cl)cc1C)N(c1cccc(Cl)c1F)C(=O)N2` (centres unmarked) [Example 5, 5-(3-Chloro-2-fluoro-phenyl)-4-(4-chloro-2-methyl-phenyl)-3-isopropyl-2-(2-methoxy-phenyl)-2,4,5,7-tetrahydro-pyrazolo[3,4-d]pyrimidin-6-one] gave a melting point of 140 to 143 °C. In addition, the IC50 in data set [1] turned out to be 1710 nM. The IC50 in data set [2] came out at 1.45 nM.

As for `CC(C)=CCn1nc2c(c1C(C)C)C(c1ccc(Cl)cc1C)N(c1cccc(Cl)c1F)C(=O)N2` (centres unmarked) [Example 4, 5-(3-chloro-2-fluorophenyl)-4-(4-chloro-2-methylphenyl) -3-isopropyl-2-(3-methylbut-2-en-1-yl)-4,5-dihydro-2H-pyrazolo[3,4-d]pyrimidin-6(7H)-one], the melting point was in the range of 81 to 83 °C. The IC50 in data set [1] amounted to 78800 nM. Moreover, in data set [2], the 50% inhibitory concentration (IC50) was 3.5 nM.

In the case of `COc1ccccc1-n1nc2c(c1C(C)C)[C@H](c1ccc(Cl)cc1C)N(c1cccc(Cl)c1F)C(=O)N2` [Example 6, (S)-5-(3-Chloro-2-fluoro-phenyl)-4-(4-chloro-2-methyl-phenyl)-3-isopropyl-2-(2-methoxy-phenyl)-2,4,5,7-tetrahydro-pyrazolo[3,4-d]pyrimidin-6-one], the values for the IC50 in data set [1], in data set [2] and in data set [3] were 2760 nM, 0.7 nM and 0.42 nM, respectively.

In the case of `COCCn1cc(N2C(=O)Nc3nn(-c4ccccc4OC)c(C(C)C)c3C2c2ccc(Cl)cc2C)cc(Cl)c1=O` (centres unmarked) [Example 19, 5-[5-Chloro-1-(2-methoxy-ethyl)-6-oxo-1,6-dihydro-pyridin-3-yl]-4-(4-chloro-2-methyl-phenyl)-3-isopropyl-2-(2-methoxy-phenyl)-2,4,5,7-tetrahydro-pyrazolo[3,4-d]pyrimidin-6-one], the results for the IC50 in data set [1], in data set [2] and in data set [3] were 1350 nM, 1.3 nM and 0.17 nM, respectively.

In turn, `Cc1cc(Cl)ccc1C1c2c(nn(Cc3ccccc3)c2C(C)C)NC(=O)N1c1cc(Cl)ccc1C` (centres unmarked) [Example 11, 2-Benzyl-4-(4-chloro-2-methyl-phenyl)-5-(5-chloro-2-methyl-phenyl)-3-isopropyl-2,4,5,7-tetrahydro-pyrazolo[3,4-d]pyrimidin-6-one] gave a melting point of 105 to 107 °C. Besides, the IC50 in data set [2] came to 3.5 nM.

In general, IC50 refers to the concentration that gives 50% inhibition. The term melting point denotes the temperature, or range, at which the solid turns liquid.
